Test results: ChEMBL document CHEMBL3112416, “Designing analogs of ticlopidine, a wall teichoic acid inhibitor, to avoid formation of its oxidative metabolites” (Bioorg Med Chem Lett, 2014)

Legend:
[1] = Displacement of UDP-[14C]GlcNAc from TarO (unknown origin) after 2.5 hrs by scintillation counting analysis
Staphylococcus aureus [2] = test: Ratio of MIC for community acquired methicillin-resistant Staphylococcus aureus USA300 in presence of targocil to MIC for community acquired methicillin-resistant Staphylococcus aureus USA300 by checkerboard broth microdilution assay; assay type: functional
Staphylococcus aureus [3] = test: Ratio of MIC for community acquired methicillin-resistant Staphylococcus aureus USA300 in presence of cefuroxime to MIC for community acquired methicillin-resistant Staphylococcus aureus USA300 by checkerboard broth microdilution assay; assay type: functional

Clc1ccccc1CN1CCc2sccc2C1 [TICLOPIDINE]
IC50 [1]: 150 µM
fractional inhibitory concentration index (FICI) (Staphylococcus aureus [2]): 8.3
fractional inhibitory concentration index (FICI) (Staphylococcus aureus [3]): 0.13

O=[N+]([O-])c1ccccc1CN1CCc2ccccc2C1
fractional inhibitory concentration index (FICI) (Staphylococcus aureus [2]): 8.3
fractional inhibitory concentration index (FICI) (Staphylococcus aureus [3]): 0.19

Clc1ccc(CN2CCc3ccccc3C2)cc1
fractional inhibitory concentration index (FICI) (Staphylococcus aureus [2]): 8.1
fractional inhibitory concentration index (FICI) (Staphylococcus aureus [3]): 2

CCN1CCN(Cc2ccccc2Cl)CC1
fractional inhibitory concentration index (FICI) (Staphylococcus aureus [2]): 2
fractional inhibitory concentration index (FICI) (Staphylococcus aureus [3]): 2

c1ccc2c(c1)CCN(Cc1ccncc1)C2
fractional inhibitory concentration index (FICI) (Staphylococcus aureus [2]): 2
fractional inhibitory concentration index (FICI) (Staphylococcus aureus [3]): 2

Clc1cccc(CN2CCc3ccccc3C2)c1
IC50 [1]: 270 µM
fractional inhibitory concentration index (FICI) (Staphylococcus aureus [2]): 8.1
fractional inhibitory concentration index (FICI) (Staphylococcus aureus [3]): 2

Clc1ccccc1CC1CCc2ccccc2N1 (stereo not drawn)
IC50 [1]: 270 µM
fractional inhibitory concentration index (FICI) (Staphylococcus aureus [2]): 8.3
fractional inhibitory concentration index (FICI) (Staphylococcus aureus [3]): 0.19

c1ccc2c(c1)CCN(Cc1ccc3ccccc3c1)C2
IC50 [1]: 220 µM
fractional inhibitory concentration index (FICI) (Staphylococcus aureus [2]): 8.1
fractional inhibitory concentration index (FICI) (Staphylococcus aureus [3]): 0.31

Oc1ccc2c(c1)CN(Cc1ccccc1Cl)CC2
fractional inhibitory concentration index (FICI) (Staphylococcus aureus [2]): 4.5
fractional inhibitory concentration index (FICI) (Staphylococcus aureus [3]): 2

c1cc2c(s1)CCNC2
IC50 [1]: 4300 µM
fractional inhibitory concentration index (FICI) (Staphylococcus aureus [2]): 2
fractional inhibitory concentration index (FICI) (Staphylococcus aureus [3]): 2

Clc1ccccc1CN1CCCC1
fractional inhibitory concentration index (FICI) (Staphylococcus aureus [2]): 2
fractional inhibitory concentration index (FICI) (Staphylococcus aureus [3]): 2

Clc1ccccc1CN1CCC2CCCCC2C1 (stereo not drawn)
fractional inhibitory concentration index (FICI) (Staphylococcus aureus [2]): 2
fractional inhibitory concentration index (FICI) (Staphylococcus aureus [3]): 2

O=C(O)C(c1ccccc1Cl)N1CCc2ccccc2C1 (racemic)
IC50 [1]: 440 µM
fractional inhibitory concentration index (FICI) (Staphylococcus aureus [2]): 2
fractional inhibitory concentration index (FICI) (Staphylococcus aureus [3]): 0.75

Cc1ccccc1CN1CCc2ccccc2C1
fractional inhibitory concentration index (FICI) (Staphylococcus aureus [2]): 8.1
fractional inhibitory concentration index (FICI) (Staphylococcus aureus [3]): 0.13

O=C(O)C(c1ccccc1C(F)(F)F)N1CCc2ccccc2C1 (racemic)
fractional inhibitory concentration index (FICI) (Staphylococcus aureus [2]): 2
fractional inhibitory concentration index (FICI) (Staphylococcus aureus [3]): 2

COC(=O)[C@H](c1ccccc1Cl)N1CCc2sccc2C1 [CLOPIDOGREL]
IC50 [1]: 150 µM
fractional inhibitory concentration index (FICI) (Staphylococcus aureus [2]): 8.1
fractional inhibitory concentration index (FICI) (Staphylococcus aureus [3]): 0.19

Clc1ccccc1CN1CCc2ccccc2C1
IC50 [1]: 520 µM
fractional inhibitory concentration index (FICI) (Staphylococcus aureus [2]): 8.1
fractional inhibitory concentration index (FICI) (Staphylococcus aureus [3]): 0.13

NC(=O)C(c1ccccc1C(F)(F)F)N1CCc2ccccc2C1 (racemic)
fractional inhibitory concentration index (FICI) (Staphylococcus aureus [2]): 2
fractional inhibitory concentration index (FICI) (Staphylococcus aureus [3]): 1

Clc1ccc2c(c1)CCN(Cc1ccccc1Cl)C2
IC50 [1]: 190 µM
fractional inhibitory concentration index (FICI) (Staphylococcus aureus [2]): 4.5
fractional inhibitory concentration index (FICI) (Staphylococcus aureus [3]): 2

Clc1ccccc1C[n+]1ccc2ccccc2c1
IC50 [1]: > 5000 µM
fractional inhibitory concentration index (FICI) (Staphylococcus aureus [2]): 2
fractional inhibitory concentration index (FICI) (Staphylococcus aureus [3]): 2

Fc1ccccc1CN1CCc2ccccc2C1
fractional inhibitory concentration index (FICI) (Staphylococcus aureus [2]): 8
fractional inhibitory concentration index (FICI) (Staphylococcus aureus [3]): 0.25

COC(=O)C(c1ccccc1Cl)N1CCc2ccccc2C1 (racemic)
IC50 [1]: 190 µM
fractional inhibitory concentration index (FICI) (Staphylococcus aureus [2]): 8.2
fractional inhibitory concentration index (FICI) (Staphylococcus aureus [3]): 0.19

Clc1ccccc1CN1CCCCC1
IC50 [1]: 1100 µM
fractional inhibitory concentration index (FICI) (Staphylococcus aureus [2]): 2
fractional inhibitory concentration index (FICI) (Staphylococcus aureus [3]): 2

O=C(O)C(c1ccccc1Cl)N1CCc2sccc2C1 (racemic)
fractional inhibitory concentration index (FICI) (Staphylococcus aureus [2]): 2
fractional inhibitory concentration index (FICI) (Staphylococcus aureus [3]): 0.75

c1ccc(CN2CCc3ccccc3C2)cc1
IC50 [1]: 270 µM
fractional inhibitory concentration index (FICI) (Staphylococcus aureus [2]): 1.3
fractional inhibitory concentration index (FICI) (Staphylococcus aureus [3]): 0.63

FC(F)(F)c1ccccc1CN1CCc2ccccc2C1
IC50 [1]: 350 µM
fractional inhibitory concentration index (FICI) (Staphylococcus aureus [2]): 8.3
fractional inhibitory concentration index (FICI) (Staphylococcus aureus [3]): 0.094

COC(=O)C(c1ccccc1C(F)(F)F)N1CCc2ccccc2C1 (racemic)
fractional inhibitory concentration index (FICI) (Staphylococcus aureus [2]): 8.3
fractional inhibitory concentration index (FICI) (Staphylococcus aureus [3]): 0.13
